According to US7566683B2, “Ethylene derivatives and pesticides containing said derivatives” (priority 1996, dated 2009):

Tests used:
[1] = system: Green Peach Aphids (Myzus persicae Sulzer); assay: Insecticidal test for green peach aphids; type: in vivo; details: 144 h, 500 ppm spray (2.5 mg/cm^2) on cabbage leaf, apterous adults, larvae and adults counted after 6 days
Description: Moistured filter paper was placed in each laboratory glass dish having an inner diameter of 3 cm, and a leaf cabbage having the same diameter as that of the dish was put on the filter paper. Four female, apterous adults of green peach aphids (Myzus persicae) were put on the cabbage leaf. Fllowing day, a chemical sample (2.5 mg/cm^2) was sprayed over the dishes, using a rotary sprinkler. […] After 6 days passed, the insects in each cylinder were observed, and mortality of the insects (larvae and adults) was determined according to the following equation. Each compound was tested in that manner for two groups of dishes. Mortality (%)=[number of insect killed/(number of insect killed+number of living insect)]×100

[2] = system: Diamond Back Moth (Plutella xylostella Linné); assay: Insecticidal test for diamond back moth; type: in vivo; details: 144 h, cabbage leaves dipped in 500 ppm aqueous emulsion, second larvae, 25° C., after 6 days
Description: The leaves of cabbage were dipped in a 500 ppm aqueous emulsion of a compound of the invention for about 10 seconds. After having been dried in air, the thus-treated leaves were put into laboratory dishes. Ten (10) second larvae of diamond back moth (Plutella xylostella) were released in each dish. Each dish was covered with a perforated cover, and stored in a thermostatic chamber at 25° C. […] Each compound was tested in that manner for two groups of dishes.

[3] = system: Cucurbit Leaf Beetles (Aulacophora femoralis Motschulsky); assay: Insecticidal test for cucurbit leaf beetles; type: in vivo; details: 144 h, cucumber leaves dipped in 500 ppm solution, second instar nymphae, 25° C., after 6 days
Description: The leaves of cucumbers were dipped in this chemical solution for about 10 seconds, dried in air, and put into a laboratory dish. Ten (10) second instar nymphae of cucurbit leaf beetles (Aulacophora femoralis) were released in each dish. Each dish was covered with a cover, and stored in a thermostatic chamber at 25° C. […] Each compound was tested in that manner for two groups of dishes.

[4] = system: Two-Spotted Spider Mites (Tetranychus urticae Koch); assay: whole plant or invertebrate; type: in vivo; details: foliar, 500 ppm solution sprayed 2 ml/cup on kidney bean leaf discs, larvae, 25° C., after 96 hours
Description: The leaves of kidney bean plants were punched into 3 cm-diameter discs, using a leaf punch, and put onto moistured filter paper in a 7 cm-diameter styrol cup. Ten (10) larvae of two-spotted spider mites (Tetranychus urticae) were put to each leaf. […] The solution was sprayed over each cup in an amount of 2 ml/cup, using a rotary sprinkler, and the cups were stored in a thermostatic chamber at 25° C. […] Each compound was tested in that manner for two groups of cups.

[5] = system: Brown Rice Planthopper (Nilaparvata lugens Stal); assay: Insecticidal test for brown rice planthopper; type: in vivo; details: 144 h, 500 ppm solution applied to rice stems and leaves, second instar nymphae, after 6 days
Excerpt: The stems and leaves of rice-plants in 1/20,000 are pot were sufficiently applied with the resulting solution. After the thus-applied chemical solution was dried in air, each pot was covered with a cylindrical cover. Ten (10) second instar nymphae of brown rice planthoppers (Nilaparvata lugens) were released in each pot. After having been thus covered, the pots were stored in a thermostatic chamber. After 6 days passed, the insects in each pot were observed, and the mortality thereof was determined according to the following equation. Each compound was tested in that manner for two groups of pots. Mortality (%)=([number of insect killed/(number of insect killed+number of living insect)]×100

Row | Compound | mortality at 500 ppm [2] [%] | mortality at 500 ppm [3] [%] | mortality at 500 ppm [4] [%] | further results
1 | Cn1nc(C(F)(F)F)c(C(O)=C(Br)n2ccc(-c3c(F)cccc3F)n2)c1Cl | – | – | – | melting point: 123 to 125 °C
2 | Cn1nc(Cl)c(C(=O)C(Br)c2ccccc2)c1Cl (stereo not shown) | – | – | – | melting point: 74.5 to 75.5 °C
3 | Cn1nc(Cl)c(C(O)=C(C#N)n2ccc(-c3c(F)cccc3F)n2)c1Cl [I-40, 2-{3-(2,6-difluorophenyl)pyrazol-1-yl}-3-(1-methyl-3,5-dichloropyrazol-4-yl)-3-hydroxyacrylonitrile] | ≥ 80 | 100 | ≥ 80 | mortality at 500 ppm [1]: ≥ 80%
4 | Cn1nc(Cl)c(C(O)=C(C#N)c2csc(-c3ccccc3)n2)c1Cl [II-1, 3-(1-methyl-3,5-dichloropyrazol-4-yl)-2-(2-phenylthiazol-4-yl)-3-hydroxyacrylonitrile] | ≥ 80 | 100 | – | mortality at 500 ppm [5]: ≥ 80%
5 | Cc1nc(C(F)(F)F)c(C(OC(=O)c2ccccc2)=C(C#N)c2csc(C(C)(C)C)n2)s1 [II-75, 2-(2-tert-butylthiazol-4-yl)-3-(2-methyl-4-trifluoromethylthiazol-5-yl)-3-benzoyloxyacrylonitrile] | ≥ 80 | – | ≥ 80 | mortality at 500 ppm [5]: ≥ 80%; mortality at 500 ppm [1]: ≥ 80%
6 | Cn1nc(C(F)(F)F)c(C(OC(=O)C(C)(C)C)=C(C#N)c2nc(C(C)(C)C)cs2)c1Cl [III-6, 3-(1-methyl-3-trifluoromethyl-5-chloropyrazol-4-yl)-2-(4-tert-butylthiazol-2-yl)-3-pivaloyloxyacrylonitrile] | ≥ 80 | 100 | ≥ 80 | mortality at 500 ppm [5]: ≥ 80%; mortality at 500 ppm [1]: ≥ 80%
7 | Cn1nc(Cl)c(C(=O)OC(=C(C#N)c2ccc(C(F)(F)F)cc2)c2c(Cl)nn(C)c2Cl)c1Cl [IV-5, 2-(4-trifluoromethylphenyl)-3-(1-methyl-3,5-dichloropyrazol-4-yl)-3-(1-methyl-3,5-dichloropyrazole-4-carbonyloxy)acrylonitrile] | – | – | ≥ 80 | –
8 | Cn1nc(Cl)c(C(O)=C(C#N)c2ccc(C(C)(C)C)cc2)c1Cl [IV-18, 2-(4-tert-butylphenyl)-3-(1-methyl-3,5-dichloropyrazol-4-yl)-3-hydroxyacrylonitrile] | – | – | ≥ 80 | –
9 | Cn1nc(C(F)(F)F)c(C(OC(=O)C(C)(C)C)=C(C#N)c2ccc(C(C)(C)C)cc2)c1Cl [IV-24, 2-(4-tert-butylphenyl)-3-(1-methyl-3-trifluoromethyl-5-chloropyrazol-4-yl)-3-pivaloyloxyacrylonitrile] | – | – | ≥ 80 | –
10 | COC(=O)OC(=C(C#N)c1ccc(C(C)(C)C)cc1)c1c(Cl)nn(C)c1Cl [IV-36, 2-(4-tert-butylphenyl)-3-(3,5-dichloro-1-methylpyrazol-4-yl)-3-methoxycarbonyloxyacrylonitrile] | – | – | ≥ 80 | –
11 | Cn1nc(Cl)c(C(O)=C(C#N)c2coc(C(C)(C)C)n2)c1Cl [V-40, 2-{2-tert-butyloxazol-4-yl}-3-(3,5-dichloro-1-methyl-pyrazol-4-yl)-3-hydroxyacrylonitrile] | – | 100 | ≥ 80 | –
12 | CCOCOC(=C(C#N)c1coc(C(C)(C)C)n1)c1c(C(F)(F)F)nn(C)c1Cl [V-44, 2-(2-tert-butyloxazol-4-yl)-3-(5-chloro-1-methyl-3-trifluoromethylpyrazol-4-yl)-3-ethoxymethoxyacrylonitrile] | – | – | ≥ 80 | –
